# Measured values reported in PubChem BioAssay (NCI).
# “And” between values parts separate entries of the source, which are not always exact repeats. Equal entries are not always repeated.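 Tested at 5 concentrations; 48 h exposure; 96-well plates; endpoints linearly interpolated, else capped at highest concentration. At the GI50, growth is halved. Definition used: TGI = concentration required for complete inhibition of growth.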
# What was measured:
# Experiment in all cases: inhibition of tumour cell growth, NCI panel, 48 h
# CAKI-1 renal = test system: CAKI-1 renal
# UACC-257 melanoma = test system: UACC-257 melanoma
# SNB-75 CNS = test system: SNB-75 CNS
# SK-MEL-28 melanoma = test system: SK-MEL-28 melanoma
# HCT-116 colon = test system: HCT-116 colon
# OVCAR-4 ovarian = test system: OVCAR-4 ovarian
# OVCAR-5 ovarian = test system: OVCAR-5 ovarian
# HCT-15 colon = test system: HCT-15 colon
# CCRF-CEM leukemia = test system: CCRF-CEM leukemia
# SNB-19 CNS = test system: SNB-19 CNS
Compound,TGI (CAKI-1 renal) [µM],TGI (UACC-257 melanoma),TGI (SNB-75 CNS) [µM],TGI (SK-MEL-28 melanoma) [µM],TGI (HCT-116 colon),TGI (OVCAR-4 ovarian) [µM],TGI (OVCAR-5 ovarian) [µM],TGI (HCT-15 colon) [µM],TGI (CCRF-CEM leukemia) [µM],TGI (SNB-19 CNS),GI50 (CAKI-1 renal) [µM],GI50 (UACC-257 melanoma) [nM],GI50 (SNB-75 CNS) [µM],GI50 (SK-MEL-28 melanoma),GI50 (HCT-116 colon) [nM],GI50 (OVCAR-4 ovarian) [nM],GI50 (OVCAR-5 ovarian) [µM],GI50 (HCT-15 colon),GI50 (CCRF-CEM leukemia),GI50 (SNB-19 CNS)
NNC(=S)N/N=C(\c1nc2ccc(Cl)cc2[nH]c1=O)C(O)c1cccc([N+](=O)[O-])c1 (stereo not drawn),> 100,> 100 µM,> 100,> 79.4,> 31.6 µM,> 100,> 100,> 100,> 100,> 100 µM,,,,,,,,,,
CC(C)C[C@H](NC(=O)[C@@H](N)Cc1cccc2ccccc12)B(O)O,,1.12 µM and 0.114 µM,,,,,,,,50 µM and > 100 µM,0.225,315,1.07,0.186 µM,138,38.4,0.174,0.35 µM,72.4 nM and < 10 nM,0.11 µM
CCOC(=O)N1C/C(=C\c2ccc(N(C)C)cc2)C(=O)/C(=C/c2ccc(N(C)C)cc2)C1,> 100,> 100 µM,> 100,> 100,> 100 µM,> 100,> 100,> 100,> 100,> 100 µM,,,,,,,,,,
COc1cccc(/C=C2\COc3ccc(O)c(O)c3C2=O)c1OC,4.69,7.18 µM,20.9,12.9,4.89 µM,8.47,13.6,10.5,> 100,12 µM,1.71,2370,3.61,3.53 µM,1900,2170,3.51,1.6 µM,610 nM,3.07 µM
O=c1oc2cc(O)ccc2cc1-c1nc2ccccc2o1,> 100,> 100 µM,> 100,> 100,> 100 µM,> 100,> 100,> 100,> 100,> 100 µM,,,,,,,,,,
CN(C)Cc1c[nH]c2nc[nH]c(=O)c12,> 100,52 µM,> 100,> 100,51.5 µM,> 100,> 100,> 100,51,> 100 µM,,,,,,,,,,
CN(COC(=O)C(C)(C)C)c1nc(N(C)COC(=O)C(C)(C)C)nc(N(C)COC(=O)C(C)(C)C)n1,> 100,> 100 µM,> 100,> 100,39.3 µM,> 100,> 100,43.9,> 100,> 100 µM,,,,,,,,,,
O=NN(CC(=O)NNc1ccccc1)CC(=O)NNc1ccccc1,> 100,> 100 µM,> 100,> 100,> 100 µM,> 100,> 100,> 100,> 100,> 100 µM,3.77,22400,> 45.4,,> 100000,,> 100,12.3 µM,5000 nM,> 100 µM
C=CC(=O)N1CCN(c2nc(OC[C@@H]3CCCN3C)nc3c(F)c(-c4nc(N)cc(C)c4C(F)(F)F)c(Cl)cc23)[C@@H](C)C1,2.95,3 µM,2.74,3.21,5.39 µM,3,21.7,3.47,> 100,12.8 µM,1.51,1570,1.22,1.75 µM,2040,1590,9.68,1.7 µM,3080 nM,3.44 µM
COc1ccc(-c2cc(-c3ccco3)c(C#N)c(=O)n2C2OC(COC(C)=O)C(OC(C)=O)C(OC(C)=O)C2OC(C)=O)cc1 (stereo not drawn),> 100,> 100 µM,> 100,> 100,> 100 µM and 21.1 µM,> 100,> 100,> 100,> 100,> 100 µM,,,,> 100 µM and 26.7 µM,,,,> 100 µM and 39 µM,,> 100 µM and 42.8 µM
N#C/C(=C\c1ccccn1)c1nc2ccccc2o1,> 100,> 100 µM,> 100,45,40.3 µM,34.2,> 100,55.8,69.6,40 µM,35.1,35800,21.8,20.7 µM,18900,17300,31.9,20.7 µM,1400 nM,17 µM
CN1C=C(C(N)=O)Cc2ccsc21,> 100,> 100 µM,> 100,> 100,> 100 µM,> 100,> 100,> 100,> 100,> 100 µM,,,,,,,,,,
C(#Cc1ccccc1C#Cc1cnccn1)c1cnccn1,51.5,> 58.6 µM,> 100,> 100,> 100 µM,> 100,> 100,56,> 100,> 100 µM,12.5,22700,29.2,46.9 µM,27800,38300,> 61.7,17.5 µM,32300 nM,> 100 µM
Cc1ccc(C)c(NC(=O)C(=O)C(C2C(C)CC(=O)C2CC(=O)O)[N+](=O)[O-])c1 (stereo not drawn),> 100,> 100 µM,> 100,> 100,> 100 µM,> 100,> 100,> 100,> 100,> 100 µM,,,,,,,,,,
CCc1n(Cc2ccc3ccccc3c2)cc[n+]1Cc1ccc2ccccc2c1,25.5,3.27 µM,1.71,2.06,2.16 µM,1.28,2.75,15.3,4.34,1.82 µM,12.4,554,0.335,0.581 µM,865,307,1.2,3.94 µM,922 nM,0.492 µM
Cc1ccc(S(=O)(=O)NC(=O)Nc2ncn[nH]2)cc1,> 100,> 100 µM,> 100,> 100,> 100 µM,> 100,> 100,> 100,> 100,> 100 µM,,,,,,,,,,
